System: G4 DNA [(CG3)2CGC(AG3)2G] (DNA, G4) CGGGCGGGCGCAGGGAGGGG
Assay: UV-vis mole-ratio titration, global fit
Details: buffer pH 7.1, 25 °C; intrinsic, two equivalent anticooperative sites, ω 0.43; stepwise fit equally good: 7.07, 5.79

lg K1-2: 6.79
Compound: C[n+]1ccc(-c2c3nc(c(-c4cc[n+](C)cc4)c4ccc([nH]4)c(-c4cc[n+](C)cc4)c4nc(c(-c5cc[n+](C)cc5)c5ccc2[nH]5)C=C4)C=C3)cc1
